From patent US10166279B2, “Vaccine” (Bergen Teknologioverføring AS, priority 2013, dated 2019)
Peptide text beside a SMILES is read from it.

Legend:
anti-STh mAb ST:G8 = assay: Competitive ELISA with anti-STh antibodies (polyclonal, mAb ST:G8); assay type: binding; settings: polyclonal and monoclonal (ST:G8) anti-STh antibodies
Experimental: Competitive STh ELISA was performed as previously described (PMID: 6520401; Lockwood and Robertson, J Immunol Methods. 1984 Dec. 31; 75(2):295-307) with minor modifications. A U-shaped microtiter plate (Linbro, Fisher Scientific, Göteborg, Sweden) was coated with STh-ovalbumin conjugate diluted in ELISA buffer (NaCl 128 mM, KCl 2.68 mM, KH2PO4 1.47 mM, Na2HPO4 8.10 mM; pH 7.0-7.2). The plate was covered with plate sealer and incubated overnight at 37° C. Contents of the wells were discarded by inversion. Additional protein binding sites were blocked by incubating with ovalbumin 1% (w/v) (Sigma-Aldrich) diluted in ELISA buffer. After incubation for 1 h at 37° C., wells were emptied and washed three times with wash buffer (ELISA buffer containing ovalbumin 0.05% (w/v) and Tween-20 0.05% (v/v)). 75 μL of samples containing STh and 75 μL of diluted antisera (Protein-A purified rabbit anti-STa kindly supplied by John D. Clements; Department of Microbiology and Immunology, Tulane University, New Orleans, USA) were added. Both dilutions were done in ELISA buffer containing ovalbumin 0.05% (w/v). Appropriate dilutions and concentrations of reagents were determined by checkerboard titrations. The plate was incubated for 2 h at 37° C., in a rotary incubator shaker (Infors HT, Bottmingen/Basel Switzerland) at 180 rpm. Wells were emptied and washed three times with wash buffer. 100 μL of anti-Rabbit IgG Alkaline Phosphatase Conjugate developed in goat (Sigma-Aldrich) diluted 1:400 in ELISA buffer with ovalbumin 0.05% (w/v) were add and incubated with not shaking for 1 h at 37° C. Wells were emptied and washed three times with wash buffer followed by addition of 100 μL of 4-Nitrophenyl phosphate disodium salt hexahydrate at 1 mg/mL in diethanolamine buffer (diethanolamine 9.7% (v/v), MgCl2×6H2O 0.49 mM; pH 9.8). After incubation for 30 min, the reaction was stopped with 50 μL 2N NaOH (VWR international) in each well. The absorbance was read in an automatic plate reader at 405 nm (FLUOstar OPTIMA; BMG Labtech, Germany). All samples were measured in triplicate.
The anti-STh mAb ST:G8 was kindly supplied by S. Visweswariah [Garrett & Visweswariah; PMID: 8950201]. The anti-STp mAbs clone 29, clone 30, and clone 31 were obtained from Fitzgerald Industries International.
ELISA-plates (Nunc Amino Immobilizer) were coated with STh-OvA conjugate in PBS, volume 100 μl per well (synthetic STh conjugated to OvA: For ST:G8 0.04 μl/well, for clone 29 and clone 30 0.01 μl/well). Plates were incubated overnight at 4 C. Subsequently, plates were emptied and blocked with PBS-T 1% OvA for 1h at 20° C. with shaking 180 rpm. […] Developing was stopped by adding 50 μl NaOH 2M to each well, and OD was read at 405 nm with a Fluostar Optima plate reader.

GC-C receptor = molecular target: T1, GC-C receptor (Homo sapiens, UniProt P25092); assay: GC-C receptor T-84 cell assay (toxicity, cGMP levels) of culture filtrates; assay type: cell-based; settings: culture filtrate; for Toxicity: relative to native STh, ^2 = no detectable toxicity, set to detection limit 0.0014
T1 construct: endogenous in cells; host or cells: T-84 cells
T1 sequence (P25092 24-1073): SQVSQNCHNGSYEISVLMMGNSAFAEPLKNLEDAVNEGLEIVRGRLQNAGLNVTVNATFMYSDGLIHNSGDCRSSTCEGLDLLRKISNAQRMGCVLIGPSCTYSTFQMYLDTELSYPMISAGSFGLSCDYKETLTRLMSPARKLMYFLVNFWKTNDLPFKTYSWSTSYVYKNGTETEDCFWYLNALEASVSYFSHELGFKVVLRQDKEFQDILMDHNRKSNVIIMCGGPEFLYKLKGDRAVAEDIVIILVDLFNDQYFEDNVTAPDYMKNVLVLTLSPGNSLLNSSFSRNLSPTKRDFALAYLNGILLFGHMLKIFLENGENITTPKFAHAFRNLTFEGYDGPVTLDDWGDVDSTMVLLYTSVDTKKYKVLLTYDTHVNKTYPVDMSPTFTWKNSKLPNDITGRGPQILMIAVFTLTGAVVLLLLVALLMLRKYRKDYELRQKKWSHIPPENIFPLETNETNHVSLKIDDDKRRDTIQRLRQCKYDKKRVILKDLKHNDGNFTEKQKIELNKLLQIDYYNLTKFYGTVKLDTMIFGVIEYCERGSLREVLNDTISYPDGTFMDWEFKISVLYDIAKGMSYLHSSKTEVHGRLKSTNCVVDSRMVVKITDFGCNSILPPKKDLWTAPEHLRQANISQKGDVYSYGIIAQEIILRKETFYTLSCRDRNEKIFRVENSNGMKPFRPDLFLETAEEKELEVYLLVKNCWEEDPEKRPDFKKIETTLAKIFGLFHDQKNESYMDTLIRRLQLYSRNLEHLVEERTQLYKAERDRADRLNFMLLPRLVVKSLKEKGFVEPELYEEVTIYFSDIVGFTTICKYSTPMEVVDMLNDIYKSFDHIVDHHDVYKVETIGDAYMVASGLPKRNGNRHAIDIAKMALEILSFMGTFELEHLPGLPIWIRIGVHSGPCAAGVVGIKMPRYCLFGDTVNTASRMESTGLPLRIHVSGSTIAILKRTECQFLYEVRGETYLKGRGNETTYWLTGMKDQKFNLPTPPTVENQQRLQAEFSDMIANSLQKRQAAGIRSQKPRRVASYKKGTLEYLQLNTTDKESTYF
Experimental: T-84 cells were seeded and cultured in each well of a 24 well plate. After removing the Dulbecco's modified Eagle's medium (DMEM:F12 (1:1) Lonza Walkersville, Inc.), cells were washed 3 times with 0.5 mL DMEM. Cells were incubated with 0.25 mL DMEM containing 1 mM 3-isobutyl-1-methylxanthine (IBMX) for 10 min at 37° C. 0.1 mL of sample (culture filtrate) was added to each well and incubated for 60 min at 37° C. Following incubation, the reaction medium was aspirated, and the cells were lysed with […] HCl at room temperature for 20 min. The lysates were centrifuged at top speed for 10 min and the cGMP levels were measured in control- and agonist-stimulated cells with a direct cGMP enzyme immunoassay kit (Enzo Life Sciences, Inc.) according to the manufacturer's instructions.
The culture filtrate of each mutant was added to the T-84 cells in duplicate, and a serial dilution of culture filtrates with recombinantly expressed native ST was used to generate a standard curve.
Toxicity measured in culture filtrates is a product of intrinsic toxicity (toxicity per mol) and the concentration of the ST mutant. The same is true for antigenicity. […] Since we have no method for accurately measuring ST (mutant) concentrations in culture filtrates, we are not able to directly measure intrinsic toxicities and antigenicities for the ST mutants.
To circumvent this problem we measure toxicity and antigenicity for the ST mutants relative to native ST. This allows us to describe changes in toxicity and antigenicity in mutant culture filtrates. Next, we divide the change in antigenicity by the change in toxicity for each mutant. If the same culture filtrate has been used to measure toxicity and antigenicity this allows us to eliminate the of the concentration.

Compound	binding by anti-STh antibodies (anti-STh mAb ST:G8)	Toxicity (GC-C receptor)	also measured
NTFYCCELCCNPACAGCY [STp]	bound	–	–
CC(C)C[C@@H]1NC(=O)[C@H](CCC(=O)O)NC(=O)[C@@H]2CSSC[C@@H]3NC(=O)[C@H](C)NC(=O)[C@@H]4CCCN4C(=O)[C@H](CC(N)=O)NC(=O)[C@H](CSSC[C@H](NC(=O)[C@H](Cc4ccc(O)cc4)NC(=O)[C@H](CC(N)=O)NC(=O)[C@H](CO)NC(=O)[C@H](CO)NC(=O)[C@@H](N)CC(N)=O)C(=O)N2)NC(=O)[C@H](CSSC[C@@H](C(=O)N[C@@H](Cc2ccc(O)cc2)C(=O)O)NC(=O)CNC(=O)[C@H](CCCNC(=N)N)NC3=O)NC1=O [Mutant T16R] (HELM PEPTIDE1{N.S.S.N.Y.C.C.E.L.C.C.N.P.A.C.R.G.C.Y}$PEPTIDE1,PEPTIDE1,6:R3-11:R3|PEPTIDE1,PEPTIDE1,7:R3-15:R3|PEPTIDE1,PEPTIDE1,10:R3-18:R3$$$V2.0)	–	0.0111	–
CC(C)C[C@@H]1NC(=O)[C@H](CCC(=O)O)NC(=O)[C@@H]2CSSC[C@@H]3NC(=O)[C@H](C)NC(=O)[C@@H]4CCCN4C(=O)[C@H](CC(N)=O)NC(=O)[C@H](CSSC[C@H](NC(=O)[C@H](Cc4ccc(O)cc4)NC(=O)[C@H](CC(N)=O)NC(=O)[C@H](CO)NC(=O)[C@H](CO)NC(=O)[C@@H](N)CC(N)=O)C(=O)N2)NC(=O)[C@H](CSSC[C@@H](C(=O)N[C@@H](Cc2ccc(O)cc2)C(=O)O)NC(=O)[C@H](Cc2ccc(O)cc2)NC(=O)[C@H]([C@@H](C)O)NC3=O)NC1=O [Mutant G17Y] (HELM PEPTIDE1{N.S.S.N.Y.C.C.E.L.C.C.N.P.A.C.T.Y.C.Y}$PEPTIDE1,PEPTIDE1,6:R3-11:R3|PEPTIDE1,PEPTIDE1,7:R3-15:R3|PEPTIDE1,PEPTIDE1,10:R3-18:R3$$$V2.0)	–	0.0234	–
CC(C)C[C@@H]1NC(=O)[C@H](CCC(=O)O)NC(=O)[C@@H]2CSSC[C@@H]3NC(=O)[C@H](C)NC(=O)[C@@H]4CCCN4C(=O)[C@H](C(C)C)NC(=O)[C@H](CSSC[C@H](NC(=O)[C@H](Cc4ccc(O)cc4)NC(=O)[C@H](CC(N)=O)NC(=O)[C@H](CO)NC(=O)[C@H](CO)NC(=O)[C@@H](N)CC(N)=O)C(=O)N2)NC(=O)[C@H](CSSC[C@@H](C(=O)N[C@@H](Cc2ccc(O)cc2)C(=O)O)NC(=O)CNC(=O)[C@H]([C@@H](C)O)NC3=O)NC1=O [Mutant N12V] (HELM PEPTIDE1{N.S.S.N.Y.C.C.E.L.C.C.V.P.A.C.T.G.C.Y}$PEPTIDE1,PEPTIDE1,6:R3-11:R3|PEPTIDE1,PEPTIDE1,7:R3-15:R3|PEPTIDE1,PEPTIDE1,10:R3-18:R3$$$V2.0)	–	–	toxicity relative to native STh (GC-C receptor; T84 cell assay): 0.01
guanylin (PGTCEICAYAACTGC) [endogenous peptide ligand of the GC-C receptor]	not	–	–
NSSNYCCELCCNPACTGCY [STh]	bound	–	–
CC(C)C[C@@H]1NC(=O)[C@H](CCC(=O)O)NC(=O)[C@@H]2CSSC[C@@H]3NC(=O)[C@H](C)NC(=O)[C@@H]4CCCN4C(=O)[C@H](CC(N)=O)NC(=O)[C@H](CSSC[C@H](NC(=O)[C@H](Cc4ccc(O)cc4)NC(=O)[C@H](CC(N)=O)NC(=O)[C@H](CO)NC(=O)[C@H](CC(N)=O)NC(=O)[C@@H](N)CC(N)=O)C(=O)N2)NC(=O)[C@H](CSSC[C@@H](C(=O)N[C@@H](Cc2ccc(O)cc2)C(=O)O)NC(=O)CNC(=O)[C@H]([C@@H](C)O)NC3=O)NC1=O [Mutant S02N] (HELM PEPTIDE1{N.N.S.N.Y.C.C.E.L.C.C.N.P.A.C.T.G.C.Y}$PEPTIDE1,PEPTIDE1,6:R3-11:R3|PEPTIDE1,PEPTIDE1,7:R3-15:R3|PEPTIDE1,PEPTIDE1,10:R3-18:R3$$$V2.0)	–	0.7308	–
CC(C)C[C@@H]1NC(=O)[C@H](CCC(=O)O)NC(=O)[C@@H]2CSSC[C@@H]3NC(=O)[C@H](Cc4c[nH]cn4)NC(=O)[C@@H]4CCCN4C(=O)[C@H](CC(N)=O)NC(=O)[C@H](CSSC[C@H](NC(=O)[C@H](Cc4ccc(O)cc4)NC(=O)[C@H](CC(N)=O)NC(=O)[C@H](CO)NC(=O)[C@H](CO)NC(=O)[C@@H](N)CC(N)=O)C(=O)N2)NC(=O)[C@H](CSSC[C@@H](C(=O)N[C@@H](Cc2ccc(O)cc2)C(=O)O)NC(=O)CNC(=O)[C@H]([C@@H](C)O)NC3=O)NC1=O [Mutant A14H] (HELM PEPTIDE1{N.S.S.N.Y.C.C.E.L.C.C.N.P.H.C.T.G.C.Y}$PEPTIDE1,PEPTIDE1,6:R3-11:R3|PEPTIDE1,PEPTIDE1,7:R3-15:R3|PEPTIDE1,PEPTIDE1,10:R3-18:R3$$$V2.0)	–	< 0.0014^2	–
CC(C)C[C@@H]1NC(=O)[C@H](CCC(=O)O)NC(=O)[C@@H]2CSSC[C@@H]3NC(=O)[C@H](C)NC(=O)[C@H](C)NC(=O)[C@H](CC(N)=O)NC(=O)[C@H](CSSC[C@H](NC(=O)[C@H](Cc4ccc(O)cc4)NC(=O)[C@H](CC(N)=O)NC(=O)[C@H](CO)NC(=O)[C@H](CO)NC(=O)[C@@H](N)CC(N)=O)C(=O)N2)NC(=O)[C@H](CSSC[C@@H](C(=O)N[C@@H](Cc2ccc(O)cc2)C(=O)O)NC(=O)CNC(=O)[C@H]([C@@H](C)O)NC3=O)NC1=O [Mutant P13A] (HELM PEPTIDE1{N.S.S.N.Y.C.C.E.L.C.C.N.A.A.C.T.G.C.Y}$PEPTIDE1,PEPTIDE1,6:R3-11:R3|PEPTIDE1,PEPTIDE1,7:R3-15:R3|PEPTIDE1,PEPTIDE1,10:R3-18:R3$$$V2.0)	–	< 0.0014^2	–
CC(C)C[C@@H]1NC(=O)[C@H](CCC(=O)O)NC(=O)[C@@H]2CSSC[C@@H]3NC(=O)[C@H](C)NC(=O)[C@@H]4CCCN4C(=O)[C@H](CC(N)=O)NC(=O)[C@H](CSSC[C@H](NC(=O)[C@H](Cc4ccc(O)cc4)NC(=O)[C@H](CC(N)=O)NC(=O)[C@H](Cc4ccccc4)NC(=O)[C@H](CO)NC(=O)[C@@H](N)CC(N)=O)C(=O)N2)NC(=O)[C@H](CSSC[C@@H](C(=O)N[C@@H](Cc2ccc(O)cc2)C(=O)O)NC(=O)CNC(=O)[C@H]([C@@H](C)O)NC3=O)NC1=O [Mutant S03F] (HELM PEPTIDE1{N.S.F.N.Y.C.C.E.L.C.C.N.P.A.C.T.G.C.Y}$PEPTIDE1,PEPTIDE1,6:R3-11:R3|PEPTIDE1,PEPTIDE1,7:R3-15:R3|PEPTIDE1,PEPTIDE1,10:R3-18:R3$$$V2.0)	–	0.3871	–
